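1) Cells in 96-well plates. 2) Compound, 48 h, 5 concentrations. 3) Linear interpolation between surrounding doses. 4) Unreached endpoint = highest concentration. GI50 is the concentration that inhibits growth by half.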 Calls of active or inactive are those of the source. No stated cut-off is given here; in the data, active = GI50 up to about 1.1 µM and inactive = higher.
Tests used:
Experiment in all cases: NCI-60 cell line screen, 48 h
SNB-75 = test system: SNB-75
NCI-H522 = test system: NCI-H522
SK-MEL-2 = test system: SK-MEL-2
SF-539 = test system: SF-539
HCC 2998 = test system: HCC 2998
SF-295 = test system: SF-295
HL-60 = test system: HL-60
NCI-H226 = test system: NCI-H226
Malme-3M = test system: Malme-3M
UACC-257 = test system: UACC-257
A549 = test system: A549
DMS-114 = test system: DMS-114
A498 = test system: A498
HCT-116 = test system: HCT-116
UACC-62 = test system: UACC-62
OVCAR-5 = test system: OVCAR-5
DMS-273 = test system: DMS-273
SK-OV-3 = test system: SK-OV-3
MOLT-4 = test system: MOLT-4
K562 = test system: K562

Measured: GI50

CCCCCCCCCCCCCCNCC(OC)OC
inactive: SNB-75 13.8 µM | NCI-H522 16.9 µM | SK-MEL-2 16.4 µM | SF-539 16.9 µM | HCC 2998 18.6 µM | SF-295 19.7 µM | HL-60 5.25 µM | NCI-H226 17.1 µM | Malme-3M 19.8 µM | UACC-257 19.4 µM | A549 19.5 µM | DMS-114 14 µM | A498 19.8 µM | HCT-116 13.1 µM | UACC-62 19.6 µM | OVCAR-5 14.6 µM | DMS-273 17.5 µM | SK-OV-3 18.7 µM

Cc1[nH]c(=O)[nH]c(=O)c1/C=C/C(=O)NC(CO)C[S+]([O-])Cc1ccccc1 (centres undefined)
inactive: SNB-75 296 µM | NCI-H522 > 300 µM | SK-MEL-2 > 277 µM | SF-539 > 300 µM | HCC 2998 > 300 µM | SF-295 > 300 µM | HL-60 > 300 µM | NCI-H226 > 300 µM | Malme-3M > 300 µM | UACC-257 > 300 µM | A549 > 300 µM | DMS-114 > 300 µM | A498 > 300 µM | MOLT-4 > 300 µM | K562 > 300 µM | HCT-116 > 300 µM | UACC-62 > 300 µM | OVCAR-5 > 300 µM | DMS-273 > 300 µM | SK-OV-3 > 300 µM

N/C(=N\O)N/N=C\c1c(O)cc(O)cc1O
inactive: SNB-75 > 47.6 µM | NCI-H522 39.7 µM | SK-MEL-2 > 100 µM | SF-539 > 100 µM | HCC 2998 73.8 µM | SF-295 > 46.8 µM | HL-60 26.1 µM | NCI-H226 66.7 µM | Malme-3M > 100 µM | UACC-257 99.3 µM | A549 45.1 µM | DMS-114 44.2 µM | A498 > 100 µM | MOLT-4 39.8 µM | K562 29.2 µM | HCT-116 > 94.2 µM | UACC-62 15.8 µM | OVCAR-5 > 100 µM | DMS-273 14.3 µM | SK-OV-3 > 89.1 µM

COc1cc(-c2ccc(/N=N/c3ccc4c(S(=O)(=O)O)cc(S(=O)(=O)O)c(N)c4c3O)c(OC)c2)ccc1/N=N/c1ccc2c(S(=O)(=O)O)cc(S(=O)(=O)O)c(N)c2c1O
inactive: SNB-75 > 100 µM | NCI-H522 > 100 µM | SK-MEL-2 > 100 µM | SF-539 > 100 µM | HCC 2998 > 100 µM | SF-295 > 100 µM | HL-60 > 41.6 µM | NCI-H226 > 87.5 µM | Malme-3M > 100 µM | UACC-257 > 100 µM | A549 > 100 µM | DMS-114 > 100 µM | A498 > 100 µM | MOLT-4 > 100 µM | K562 > 100 µM | HCT-116 > 100 µM | UACC-62 > 100 µM | OVCAR-5 > 91.2 µM | DMS-273 > 100 µM | SK-OV-3 > 100 µM

O=C1c2ccccc2OCC1/C=N/O (centres undefined)
inactive: SNB-75 > 100 µM | NCI-H522 24.9 µM | SK-MEL-2 86.3 µM | SF-539 76 µM | HCC 2998 > 100 µM | SF-295 > 100 µM | HL-60 > 100 µM | NCI-H226 > 100 µM | Malme-3M > 100 µM | UACC-257 > 56.1 µM | A549 > 100 µM | DMS-114 36.4 µM | A498 > 100 µM | MOLT-4 > 100 µM | K562 > 100 µM | HCT-116 > 100 µM | UACC-62 > 100 µM | OVCAR-5 > 100 µM | DMS-273 99.8 µM | SK-OV-3 > 100 µM

CC1=C2C(O)C(C(C)C(=O)NCC(C)C)CCC2(C)C=CC1=O (centres undefined)
inactive: SNB-75 > 100 µM | NCI-H522 > 100 µM | SK-MEL-2 > 100 µM | SF-539 > 100 µM | HCC 2998 > 100 µM | SF-295 > 100 µM | HL-60 > 100 µM | NCI-H226 > 100 µM | UACC-257 > 100 µM | A549 > 100 µM | DMS-114 > 100 µM | A498 > 100 µM | MOLT-4 > 100 µM | K562 > 100 µM | HCT-116 > 100 µM | UACC-62 > 100 µM | OVCAR-5 > 100 µM | DMS-273 > 100 µM

CCCc1nc(NC#N)nc(C(=O)NC23CC4CC(CC(C4)C2)C3)c1C
inactive: SNB-75 > 100 µM | NCI-H522 > 100 µM | SK-MEL-2 > 100 µM | SF-539 > 100 µM | HCC 2998 > 100 µM | SF-295 > 100 µM | HL-60 > 100 µM | NCI-H226 > 100 µM | Malme-3M > 100 µM | UACC-257 > 100 µM | A549 > 100 µM | DMS-114 > 100 µM | A498 > 100 µM | MOLT-4 > 100 µM | K562 > 100 µM | HCT-116 > 100 µM | UACC-62 > 100 µM | OVCAR-5 > 100 µM | DMS-273 > 100 µM | SK-OV-3 > 100 µM

NC(=O)CCC(N=C(N)c1csc(C2OC(CO)C(O)C2O)n1)C(=O)O (centres undefined)
inactive: SNB-75 > 100 µM | NCI-H522 > 100 µM | SK-MEL-2 > 100 µM | SF-539 > 100 µM | HCC 2998 > 100 µM | SF-295 > 100 µM | HL-60 > 100 µM | Malme-3M > 100 µM | UACC-257 > 100 µM | A549 > 100 µM | DMS-114 > 100 µM | A498 > 100 µM | MOLT-4 > 100 µM | K562 > 100 µM | UACC-62 > 100 µM | OVCAR-5 > 100 µM | DMS-273 > 100 µM | SK-OV-3 > 100 µM
